Assay [1] deals with T1, Aromatase (Homo sapiens, UniProt P11511).
T1 sequence (P11511 whole entry): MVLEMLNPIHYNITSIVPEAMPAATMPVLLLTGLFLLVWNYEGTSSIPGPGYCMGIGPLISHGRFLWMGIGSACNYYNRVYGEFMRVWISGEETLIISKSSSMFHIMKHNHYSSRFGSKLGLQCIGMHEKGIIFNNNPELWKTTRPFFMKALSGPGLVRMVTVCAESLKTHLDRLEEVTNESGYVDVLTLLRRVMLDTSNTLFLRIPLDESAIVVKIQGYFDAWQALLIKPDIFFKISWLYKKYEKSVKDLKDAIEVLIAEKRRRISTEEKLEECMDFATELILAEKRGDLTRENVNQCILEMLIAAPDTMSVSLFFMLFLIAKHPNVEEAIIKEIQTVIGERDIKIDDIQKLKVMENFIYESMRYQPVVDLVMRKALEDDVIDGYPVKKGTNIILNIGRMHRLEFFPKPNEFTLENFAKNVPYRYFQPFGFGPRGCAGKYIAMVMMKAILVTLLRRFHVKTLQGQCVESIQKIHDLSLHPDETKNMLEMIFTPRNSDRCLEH
The experiment in a line: Inhibition of human placental microsomal aromatase using [1beta-3H] androstenedione as substrate assessed as tritiated H2O release after 15 mins by liquid scintillation counting method.

Assay [2] has as its target T1, Aromatase. As to the kind of experiment: Inhibition of particulate fractions of human breast cancer derived aromatase.
The target in assay [3] is T1, Aromatase.
Description: Competitive inhibition of human placental microsomal aromatase using androgen as substrate
In assay [4] the target is T1, Aromatase. The experiment in a line: Inhibition of human placental microsomal aromatase using [1beta-3H] androstenedione as substrate assessed as tritiated H2O release preincubated for 5 mins followed by protein addition measured after 20 mins by beta counting method.
In assay [5] the target is T1, Aromatase. As to the kind of experiment: Inhibition of human placental microsomal aromatase using testosterone as substrate assessed as formation of estradiol after 10 mins.
Assay [6] has as its target T1, Aromatase. The experiment in a line: Inhibition of human aromatase using testosterone as substrate incubated for 1 hr by HTRF assay.

By IC50 is commonly meant the concentration that gives 50% inhibition. Usually Ki stands for the dissociation constant of the complex between target and ligand, obtained from inhibition or displacement. High values mean lower affinity, low ones higher affinity.

Turning to `C=CC[C@@H]1CC2=CC(=O)C=C[C@]2(C)[C@H]2CC[C@]3(C)[C@@H](O)CC[C@H]3[C@H]12`, the half-inhibitory concentration (IC50) in assay [1] was determined as 450 nM.

In assay [2], `C[C@]12CCC(=O)C(O)=C1CC[C@@H]1[C@@H]2CC[C@]2(C)C(=O)CC[C@@H]12` [FORMESTANE] showed an IC50 of 30 nM.

For the compound `C=CC[C@@H]1CC2=CC(=O)CC[C@]2(C)[C@H]2CC[C@]3(C)C(=O)CC[C@H]3[C@H]12`, the half-inhibitory concentration (IC50) in assay [1] amounted to 590 nM.

In assay [3], `COc1ccc2c(Cc3ccccc3)c(-c3ccc(Cl)cc3)c(=O)oc2c1` returned a Ki of 84 nM.

As to `C=CC[C@@H]1CC2=CCCC[C@]2(C)[C@H]2CC[C@]3(C)C(=O)CC[C@H]3[C@H]12`, the IC50 in assay [1] is 750 nM.

Regarding `C[C@]12Cc3cc[nH]c3C(=O)[C@@H]1CC[C@@H]1[C@@H]2CC[C@]2(C)[C@@H](O)CC[C@@H]12`, the IC50 in assay [4] turned out to be 512 nM.

Consider `CC/C(=C(\c1ccc(O)cc1)c1ccc(OCCN(C)C)cc1)c1ccccc1` [AFIMOXIFENE], for which the IC50 in assay [5] was determined as 530000 nM.

Consider `Fc1ccc(-c2cc(-n3cccc3)c3ccccc3n2)cc1`, for which the half-inhibitory concentration (IC50) in assay [6] turned out to be 800 nM.

Source of the values: ChEMBL document CHEMBL3817793, “Recent Progress in the Discovery of Next Generation Inhibitors of Aromatase from the Structure-Function Perspective” (J Med Chem, 2016).
